# In ChEMBL document CHEMBL3507680, “University of Dundee, Gates Library screen for HepG2 cell viability”:
# Assay: Human HepG2 cell viability assay in 384 well format
# Format: toxicity, cell-based
# Set-up: dose 125 nL, time 70.5 hour; concentration not given beside the values
# Conditions: HepG2 cells, read-out: Inhibition
row,SMILES,cytotoxicity at 70.5 h [%]
1,Cc1nn(C)cc1CN1CCc2nc3sccc3c(=O)n2CC1,-9.47
2,O=C(Nc1ccc(=O)n(Cc2ccccc2Cl)c1)C1CC1,-23.5
3,CN1C(=O)COc2ccc(C(=O)Cn3cnc4ccccc4c3=O)cc21,-12
4,COc1ccc(C)cc1C(C)NCc1cccn1C (stereo not drawn),-0.611
5,O=S(=O)(c1ccccc1)N1C[C@@H]2COC[C@]2(CN2CCOCC2)C1,13.1
6,CCN1CCO[C@@H]2CN(C(=O)c3cocn3)C[C@@H]2C1,34.2
7,CCN(CC)Cc1cc(=O)n2c(n1)CN(S(=O)(=O)C1CC1)CCC2,-7.27
8,CN(Cc1cccnc1)CC1(O)CCCN(CC(C)(C)C)C1=O (stereo not drawn),-2.66
9,CCc1noc(C(C)N(C)CC(=O)Nc2cccc(C)c2C)n1 (stereo not drawn),20.2
10,CC(C)c1ncc(CN2C[C@@H](CN3CCC(O)CC3)[C@@H](CO)C2)cn1,37.8
11,Cn1ccc(NC(=O)Cc2cccc(F)c2)n1,14.1
12,CC(=O)N1CCc2ccc(NC(=O)c3cn(C)nn3)cc2C1,-5.41
13,CN(C)C(=O)c1cn[nH]c1C1(C)CCCN(Cc2ccccn2)C1 (stereo not drawn),-1.05
14,C[C@H]1C[C@H]2CN(S(=O)(=O)c3ccc(F)cc3)CC[C@H]2O1,13.7
15,CN1CC(=O)N(c2ccsc2)CC12CCN(S(C)(=O)=O)C2 (stereo not drawn),1.05
16,CC(C)c1[nH]c2ncccc2c1CN1CCC(O)CC1,-3.13
17,CCOc1ccc(-c2ccnc(C)n2)cc1C(=O)O,-4.51
18,COc1cccc(CC(=O)N2CCC(NCc3c[nH]nc3C)CC2)c1,-4.19
19,CCN1CCCn2c(nc(CNC(=O)c3ccsc3)cc2=O)C1,-15.8
20,Cc1ccc(CN2CCC3(CC2)C(=O)N(C)c2ccccc23)s1,0.079
21,CN(C)c1ncccc1CNS(=O)(=O)c1ccc(F)c(F)c1,1.87
22,CNC(=O)c1ccc(C2CCCN(C(=O)c3sc(C)nc3C)C2)nc1 (stereo not drawn),2.08
23,Cc1cnn(CC2CCCN2Cc2cc(=O)n3c(C)csc3n2)c1 (stereo not drawn),-4.63

row,SMILES,cytotoxicity at 70.5 h [%]
1,O=C(CC1Cn2ncnc2NC1=O)Nc1ccc(F)c(F)c1 (stereo not drawn),-7.69
2,CN(C)c1ncc(CNC(=O)Nc2ccccc2C(F)(F)F)n1C,18.7
3,CC1c2ncc(COCC3CCCC3)n2CCN1S(=O)(=O)N(C)C (stereo not drawn),0.773
4,COC(=O)c1ccc(Cn2nc(C)cc2C)c(F)c1,-4.1
5,CN(C)CC(=O)N1CC(c2nn(C)c3nccnc23)C1,-6.77
6,O=C(Cc1ccsc1)N1CCn2cc(CN3CCCC3)nc2C1,-5.43
7,O=C(CSC1CCCC1)N1CCN(C(=O)C2CC2c2cccs2)CC1 (stereo not drawn),33.2
8,CCC(=O)N1CC[C@H]2[C@H](C[C@@H](Cn3cccn3)N2c2nccs2)C1,8.28
9,COCC(=O)N1CCC(c2cc(C(F)(F)F)c3c(C)noc3n2)CC1,12.4
10,O=C(Cn1ccc2ccccc21)N1CCC(Oc2ncccc2Br)CC1,-3.13
11,CN(C)C(=O)c1cccc(NC(=O)N(CCO)Cc2ccsc2)c1,-4.45
12,Cc1ccc(-c2cc(CNCCn3cc(C)cn3)on2)cc1,-1.34
13,Cc1cccc(C(C(=O)NCCCc2nnc3ccccn23)N(C)C)c1 (stereo not drawn),20.2
14,CN(C)C(=O)CN1CCC2(CCN(S(=O)(=O)C3CC3)CC2)C1=O,-11.2
15,Cc1nn(C)c(N(C)C)c1CNC1CCOc2c(F)cccc21 (stereo not drawn),13.3
16,CC(Cn1ccnc1)NC(=O)NCc1cccnc1OC1CCCC1 (stereo not drawn),-8.81
17,Cc1ncc(CNC(C)(C)CO)c2cc(C(=O)c3ccc(Br)cc3)oc12,-14.3
18,CCN1CCOC(CNCc2ccc(C)s2)C1 (stereo not drawn),-4.21
19,CCN1CCN(c2ccc(C(=O)NCCn3ccnc3)cc2F)CC1,-3.77
20,COCCNC(=O)Cn1cc(NC(=O)c2cc(Cl)c(Cl)n2C)cn1,0.862
21,CCc1c(C(=O)O)nnn1-c1cc(C)cc(C)c1,-18.5
22,CO[C@H]1CNC[C@@H]1NC(=O)c1cc(C)nc2c(C)c(C)ccc12,5.29
23,COCCNC(=O)Cn1cc2c(n1)c(C)nn2C,-9.77

row,SMILES,cytotoxicity at 70.5 h [%]
1,CC(NCCN1CCN(C(=O)C2CCCC2)CC1)c1nccs1 (stereo not drawn),7.3
2,Cc1ccccc1C(=O)N1CC[C@@H](N2CCC(O)CC2)[C@H](O)C1,-1.6
3,FC(F)(F)COCCN1CCCC(c2noc(C3CC3)n2)C1 (stereo not drawn),-10.4
4,CC(C)CN1CCN(C(=O)c2cccnc2-n2cncn2)CC1,11.2
5,CCCn1ncnc1C(C)NC(=O)C1CCN(CC(N)=O)CC1 (stereo not drawn),-6.92
6,CNc1ccnc(N(C)Cc2cc(-c3cccs3)n[nH]2)n1,32.5
7,OC1CCN(c2cncc(CCC3CCCN3)n2)CC1 (stereo not drawn),-4.54
8,O=C(CCc1ccccc1F)NS(=O)(=O)c1ccc2c(c1)OCCO2,21.2
9,CC(C)N1CCC(C(=O)N2CCC(c3ccc(F)cc3)C2)CC1 (stereo not drawn),-20.4
10,OCC1(O)CCCN(Cc2ccc(-c3cc[nH]n3)s2)CC1 (stereo not drawn),-9.87
11,O=C(NC1CC1)[C@H]1CC[C@@H]2[C@@H](CCN2Cc2ccsc2)O1,-10.2
12,N#Cc1ccccc1CN(CCO)Cc1ccsc1,-14.1
13,Cc1nc(C(C)C)sc1C(=O)N(C)Cc1cnn(C)c1,14.2
14,CN(C)c1ncc(-c2cncn2CCc2ccc3c(c2)OCCO3)cn1,-7.82
15,CCNC(=O)N1C[C@@H]2OCC(=O)N(CC3CC3)[C@@H]2C1,-3.79
16,O=C(COCc1ccccc1)N1CCCC1c1noc(C2CC2)n1 (stereo not drawn),-7.31
17,c1cnc(N2C[C@H]3CCN(CC4CC4)C[C@H]3C2)cn1,3.82
18,COC(=O)c1ccc(Cl)c(NS(=O)(=O)c2cn(C)cn2)c1,9.09
19,Cc1nc(-c2ccnc(N3CCNCC3)n2)no1,-1.44
20,CC1CCCCN1C(=O)COc1nc(C(C)(C)C)no1 (stereo not drawn),-2.52
21,Cc1cccc(-c2ccc(C(=O)NCC3CCCOC3)c(=O)[nH]2)c1 (stereo not drawn),-9.36
22,Cn1ncc2c(NCCn3cccc3)nc(C3CCCC3)nc21,-5.71
23,CCc1nccn1CC(=O)Nc1cccc(C(=O)OC)c1,-5.31

row,SMILES,cytotoxicity at 70.5 h [%]
1,COc1ccccc1NC(=O)C1(c2ccccc2)CCOCC1,-6.73
2,Cc1nn(C)c2ncnc(N3CCC(O)(CN4CCCC4)CC3)c12,-6.34
3,COCCNC(=O)[C@H]1C[C@@H]2CCN(Cc3nccs3)C[C@H]2O1,-13.5
4,Cc1nnc2n1CCN(C(=O)COCCOc1ccccc1)C2,-1.96
5,c1cnn(CCC2CCN(Cc3ccc4[nH]ccc4c3)CC2)c1,0.43
6,Cc1ccc(-c2cc(N)c(=O)n(CC(=O)NC3CCCCC3)n2)s1,-17.9
7,CC(=O)N1CCC1c1cc(N2CC(O)C2)nc(C)n1 (stereo not drawn),-11.3
8,O=C(NCC(O)Cc1ccccc1)c1ccc2[nH]c(=O)[nH]c2c1 (stereo not drawn),-6.14
9,CCOc1ccnc(N2CCN(C(=O)CCc3cnn(C)c3)CC2)n1,-4.83
10,Cc1ccc2nc(CSCC(=O)Nc3nnc(C(C)C)s3)cc(=O)n2c1,-6.09
11,CC(=O)N1CCC(Cc2nccnc2-c2ccnn2C)CC1,-2.74
12,Cc1cc(CNc2ccc3nc(C)sc3c2)no1,-4.46
13,CN(Cc1ccco1)[C@@H]1CN(Cc2cnn(C)c2)[C@@H]2CCCO[C@H]12,-12
14,Cc1cc(C)c(C#N)c(NCCSc2nncn2C)n1,-6.87
15,O=C(O)c1cc(-c2cn[nH]c2)cc(S(=O)(=O)N2CCSCC2)c1,-4.23
16,CN(C)C(=O)COCC1CN(Cc2ccoc2)Cc2ncn(C)c21 (stereo not drawn),-3.96
17,COc1nccc(N2CC[C@H](CO)[C@@H](O)C2)c1C#N,-6.06
18,CC(C#N)(NC(=O)COc1ccccc1Br)C1CC1 (stereo not drawn),8.66
19,Cc1nocc1C(=O)N1CCOC2(COCCN(C(C)C)C2)C1 (stereo not drawn),-5.11
20,COCc1ncn2c1CN(C(=O)Nc1ccccc1)CC2,-4.33
21,O=C(Nc1cc(C2CCOCC2)[nH]n1)c1cscn1,-7.61
22,O=C(NCc1cc(-c2ccccc2)no1)NCC1CCCO1 (stereo not drawn),-0.266
23,COc1ccc(Cl)cc1CCNC(=O)NCc1noc(C)n1,-3.63

row,SMILES,cytotoxicity at 70.5 h [%]
1,O=C(CN1CCN(CC(O)C2CC2)CC1)NCc1ccccc1 (stereo not drawn),-8.44
2,Cc1ccc(C)c(OCc2cc(C(=O)N(C)Cc3nonc3C)no2)c1,3.12
3,O=C(c1cc2c([nH]c1=O)CCC2)N1CCCCC1c1cccc(F)c1 (stereo not drawn),2.02
4,COc1cccc(C(=O)N2CCc3ncnc(C)c3CC2)c1,-5.4
5,CN(Cc1cccc(C#N)c1)Cc1nc2c(cnn2C)c(=O)[nH]1,-19
6,c1cncc(CN(Cc2ccc(-n3ccnc3)cc2)CC2CCCO2)c1 (stereo not drawn),13.2
7,CCc1ccc2nc(C)cc(C(=O)N[C@@H]3CNC[C@H]3O)c2c1,25.1
8,COCC(=O)N1CCC2(CC1)CC(=O)N(Cc1ccc(Cl)cc1)C2,-6.31
9,Cc1cc(C(=O)N2CCCC(n3ccnc3C)C2)c(C)s1 (stereo not drawn),-11.2
10,CCc1nccc(CN2CCCC(c3nn(C)c(=O)n3CC)C2)n1 (stereo not drawn),-3.33
11,c1cncc(N2CCC3(CCCN(c4ccncc4)C3)CC2)c1,-6.14
12,O=C(CSC1=NS(=O)(=O)c2cc(F)ccc2N1)Nc1ccc(Cl)cc1,22.3
13,COCCN1CCC(CNC(=O)Nc2ccc(F)c(Cl)c2)C1 (stereo not drawn),24.8
14,COc1c(C2CCCN2C(=O)c2ccco2)c(C)nn1C (stereo not drawn),8.77
15,CNC(=O)NC(=O)Cn1cc(-c2ccccc2)cn1,-2.21
16,CCCS(=O)(=O)N1CCC2(CC1)CC(=O)N(Cc1cc(F)cc(F)c1)C2,-7.19
17,Cc1nc[nH]c1CN(Cc1ccc(F)cc1)C1CC(C)(C)NC(C)(C)C1,-2.59
18,CCN(C)C(=O)c1ccnn1-c1ccc2ccccn12,1.76
19,CCNc1ncc(-c2cc(-c3ccn(C)c3)nc(N)c2C#N)cn1,-11.6
20,CS(=O)(=O)NCC1CCCN(C(=O)Nc2ccccc2Cl)C1 (stereo not drawn),1.65
21,COc1ccc(CNC(c2cccc(F)c2)c2cnn(C)c2)cc1 (stereo not drawn),-3.12
